In patent US11826453B2, “Hair care composition comprising piroctone olamine” (Conopco, Inc., priority 2019, dated 2023):

Test: Octopirox degradation under cool white light (LCMS / UPLC-UV)
Assay type: physicochemical
Conditions: 24 hours
Experimental: The cool white light (CWL) irradiation was carried out in an X-Rite (Macbeth) Spectra Light III chamber. CWL mode was chosen which provides stable irradiation mimicking the indoor light. The intensity of light was fixed which estimated at 6 μw/cm2 for UVA and 1.5 μw/cm^2 for UVB. The chamber temperature was equal to the room temperature (20±2° C.). The sample was placed in a line close to the center of the chamber. After 24 hours, the sample was analyzed by LCMS (Water UPLC coupled with Quatro Micro MS), by quantitatively measured using UPLC-UV analysis following DPS derivatization.
The separation was performed by a UPLC BEH C18 column and the mobile phase was acetonitrile/water (60/40, 0.1% formic acid) in isocratic elution. Electrospray ionization in positive mode was applied for MS scan.

Question: Which “quantity of Octopirox® after cool white light” value (cool white light (indoor light; 6 μw/cm2 UVA, 1.5 μw/cm^2 UVB), 20±2° C.) does the source give for `Cc1cc(CC(C)CC(C)(C)C)n(O)c(=O)c1.NCCO` (centres unmarked) [Octopirox®, Piroctone olamine] here?
Answer: The value was “reduced”.

Question: What about the “compound of formula 1 in the degradation product” value (cool white light, LCMS) of the same compound?
Answer: Its value is “no compound of formula 1 can be detected”.
